Measurements reported in US10640457B2, “Histone acetyltransferase activators and uses thereof” (The Trustees of Columbia University in the City of New York, priority 2009, dated 2020).
Values joined by “and” are separate entries in the source; they are usually repeats but may differ in a detail not shown here. Equal values may be shown once. “Also recorded” adds a separate entry of the source.

How the values were obtained:
[1] = target: T1, HDAC10 (Homo sapiens, UniProt Q969S8); assay: HDAC10 fluorogenic activity assay; details: for % Activity: Repeat1/Repeat2, listed as OA2
T1 sequence (Q969S8 1-669): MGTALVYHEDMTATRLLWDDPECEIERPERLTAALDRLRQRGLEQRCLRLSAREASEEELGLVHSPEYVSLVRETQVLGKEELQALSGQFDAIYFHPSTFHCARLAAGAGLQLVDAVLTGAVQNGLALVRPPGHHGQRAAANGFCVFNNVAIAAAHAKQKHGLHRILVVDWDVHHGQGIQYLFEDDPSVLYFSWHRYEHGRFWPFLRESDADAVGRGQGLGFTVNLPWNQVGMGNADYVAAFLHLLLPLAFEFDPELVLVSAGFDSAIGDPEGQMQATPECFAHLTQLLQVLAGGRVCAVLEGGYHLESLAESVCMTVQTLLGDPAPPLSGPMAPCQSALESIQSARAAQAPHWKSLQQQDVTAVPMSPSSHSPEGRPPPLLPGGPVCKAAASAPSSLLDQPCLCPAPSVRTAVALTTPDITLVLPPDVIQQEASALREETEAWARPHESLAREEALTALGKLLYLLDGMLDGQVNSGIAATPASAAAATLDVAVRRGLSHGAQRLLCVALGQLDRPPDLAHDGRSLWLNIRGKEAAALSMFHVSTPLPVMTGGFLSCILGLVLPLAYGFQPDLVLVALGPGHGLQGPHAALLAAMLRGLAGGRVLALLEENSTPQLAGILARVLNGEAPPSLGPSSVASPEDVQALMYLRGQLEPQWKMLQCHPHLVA

[2] = test system: Aβ42-infused mice; assay: Contextual and cued fear conditioning in Aβ-infused mice (YF2); assay type: in vivo
Method: Contextual and cued fear conditioning was performed to assess whether the compound is capable of ameliorating amyloid-beta (Aβ) induced memory defect. Aβ is a peptide which is elevated in Alzheimer's disease. The hippocampus plays a key role in contextual memory and in Alzheimer's Disease. This type of cognitive test is much faster than other behavioral tasks that require multiple days of training and testing [Q1, Q2]; each herein incorporated by reference in its entirety. The conditioning chamber was in a sound-attenuating box. A clear Plexiglas window allowed the experimenter to film the mouse performance with a camera placed on a tripod and connected to the Freezeframe software (MED Ass. Inc.). To provide background white noise (72 dB), a single computer fan was installed in one of the sides of the sound-attenuating chamber. […] The floor was removable, and after each experimental subject, we cleaned it with 75% ethanol and then with water. Only one animal at a time was present in the experimentation room.
For the cued and contextual conditioning experiments, mice were placed in the conditioning chamber for 2 min before the onset of a discrete tone (CS) (a sound that lasted 30 sec at 2800 Hz and 85 dB). In the last 2 sec of the CS, mice were given a foot shock (US) of 0.8 mA for 2 sec through the bars of the floor. […] Freezing behavior, defined as the absence of all movement except for that necessitated by breathing, was scored using the Freezeview software.
To evaluate contextual fear learning, freezing was measured for 5 min (consecutively) in the chamber in which the mice was trained 24 hr after training. To evaluate cued fear learning, following contextual testing, the mice were placed in a novel context (triangular cage with smooth flat floor) for 2 min (pre-CS test), after which they were exposed to the CS for 3 min (CS test), and freezing was measured. Sensory perception of the shock was determined through threshold assessment. […] Initially, a […] shock was delivered for 1 sec, and the animal behavior was evaluated for flinching, jumping, and vocalization. […]

[3] = test system: YAC128 mice; assay: Open field in YAC128 Huntington's Disease mice; assay type: in vivo; details: for effect of treatment on total locomotion (distance traveled, 30 min): age 6 mo., YF2 5 mg/kg
Method: Animals: Mouse models of Huntington's Disease (YAC128) versus wildtype (WT) littermates.
Open field: This assay is a common assay used to monitor total spontaneous locomotor activity and exploratory behavior in mouse models of Huntington's disease (HD). The spontaneous locomotor activity of the animals was measured using an automated photo-beam open-field system (Med-Associates, St Albans, Vt.). Mice were placed individually in the center of a clear open-field chamber (27.9 cm×27.9 cm×20 cm), and their horizontal and vertical activities were measured immediately for 30 min with three 16-beam UR arrays. Locomotor activity was assessed as the distance traveled in 5-min intervals. The number of mice typically used for open field range from 12 to 15 mice.

[4] = in vivo, ip
[5] = Kinetics of YF2 in tail blood; assay type: in vivo, mice; details: 20 mg/kg i.p.
Method: To this purpose, we administered the compound (20 mg/kg. i.p.) and then sampled blood from tails at different time points.

Q: Which IC50 [1] does the source give for `CCOc1cccc(OCCN(C)C)c1C(=O)Nc1ccc(Cl)c(C(F)(F)F)c1` [YF2] here?
A: The IC50 was over 200 µM.

Q: And the “% Activity” value ([1]; OA2 Log[nM] 0.5)?
A: The value was 91.08% and 101.05%.

Q: What about the “% Activity” value ([1]; OA2 Log[nM] 1.0) of the same molecule?
A: The value was 103.77% and 104.31%.

Q: What about the “% Activity” value ([1]; OA2 Log[nM] 1.5) of the same molecule?
A: Its value is 105.57% and 103.85%.

Q: What about the “% Activity” value ([1]; OA2 Log[nM] 2.0) of the same molecule?
A: Its value is 103.04% and 105.77%.

Q: And the “% Activity” value ([1]; OA2 Log[nM] 2.5)?
A: The value was 104.90% and 105.64%.

Q: What about the “% Activity” value ([1]; OA2 Log[nM] 3.0) of the same molecule?
A: The value was 99.94% and 104.64%.

Q: And the “% Activity” value ([1]; OA2 Log[nM] 3.5)?
A: Its value is 96.95% and 106.25%.

Q: And the “% Activity” value ([1]; OA2 Log[nM] 4.0)?
A: Its value is 96.50% and 102.89%.

Q: What about the “% Activity” value ([1]; OA2 Log[nM] 4.5) of the same molecule?
A: The value was 95.38% and 102.89%.

Q: And the “% Activity” value ([1]; OA2 Log[nM] 5.3)?
A: The value was 116.56% and 86.05%.

Q: What about the “contextual memory, compound alone” value ([2]; 20 mg/kg i.p., no Aβ) of the same molecule?
A: The value was “did not affect”.

Q: What about the “contextual fear memory deficit (freezing time)” value ([2]; Aβ42-infused mice, i.p. 20 mg/kg 2 hrs or 5 mg/kg 30 min before the electric shock) of the same molecule?
A: The value was “ameliorated; also recorded: dramatically increasing”.

Q: And the cued memory ([2]; different groups (vehicle, YF2, Aβ, YF2 plus Aβ))?
A: Its cued memory is “not changed”.

Q: What about the “effect of treatment on total rearing or vertical movements” value ([3]; female YAC128 mice) of the same molecule?
A: Its value is “no significant effect”.

Q: And the “effect of treatment on total locomotion (distance traveled, 30 min)” value ([3]; female mice)?
A: Its value is “diminish significantly (i.e. worsen)”.

Q: And the “effect of treatment on total rearing or vertical movements” value ([3]; male YAC128 mice)?
A: Its value is “no significant effect”.

Q: What about the “effect of treatment on total locomotion (distance traveled, 30 min)” value ([3]; male mice) of the same molecule?
A: Its value is “no significant effect”.

Q: And the “dose up to which no adverse effects were induced” value [4]?
A: Its value is “up to 300 mg/kg”.

Q: And the “time of peak in blood post-injection” value [5]?
A: The value was “around 30 minutes”.
